The text below walks through data of ChEMBL document CHEMBL4184112, “Spiroorthoester group-containing pregnane glycosides from the root barks of Periploca chrysantha and their inhibitory activities against the proliferation of B and T lymphocytes” (Bioorg Med Chem Lett, 2018).

Where only a bound is given, the exact number is not on record here.

A short description of data set [1]: Cytotoxicity against lymphocytes (unknown origin) assessed as decrease in cell viability. It is filed as cell-based, Lymphocyte.
Data set [2] is described as follows: Inhibition of LPS-induced B lymphocytes (unknown origin) proliferation. The class given is functional.
The next data set relates to T-cell. Kind of data set: Inhibition of ConA-induced T lymphocytes (unknown origin) proliferation. It is filed as functional, cell-based.
A short description of data set [3]: Selectivity index, ratio of CC50 for lymphocytes (unknown origin) to IC50 for ConA-induced T lymphocytes (unknown origin) proliferation. It is filed as toxicity. The conditions noted are these: read-out: Ratio CC50/IC50.
Data set [4] can be described thus: Selectivity index, ratio of CC50 for lymphocytes (unknown origin) to IC50 for LPS-induced B lymphocytes (unknown origin) proliferation. The following applies: read-out: Ratio CC50/IC50. It is filed as toxicity.

On to `CO[C@H]1[C@@H](O)[C@@H](C)O[C@@H](O[C@H]2[C@@H](OC)C[C@H](O[C@H]3[C@H](O)C[C@H](O[C@H]4[C@@H](OC)C[C@H](O[C@@H]5[C@@H](C)O[C@@]6(C[C@H]5OC)OCO[C@@H]5C[C@H](O[C@@H](C)[C@@]7(O)CC[C@H]8[C@@H]9CC=C%10C[C@@H](O)CC[C@]%10(C)[C@H]9CC[C@@]87C)O[C@H](C)[C@H]5O6)O[C@@H]4C)O[C@@H]3C)O[C@@H]2C)[C@@H]1OC(C)=O`, for which, in data set [1], the CC50 (in general, the concentration at which the toxic effect on the cells reaches its halfway point) amounted to 124000 nM. Further, the results for the IC50 (in data set [2]; in the data set on T-cell) were 1130 nM and 180 nM, respectively. For the same molecule, the selectivity ratio in data set [3] amounted to 706; in data set [4], 110.

For `CO[C@H]1[C@@H](O)[C@@H](C)O[C@@H](O[C@H]2[C@@H](OC)C[C@H](O[C@H]3[C@@H](OC)C[C@H](O[C@H]4[C@@H](OC)C[C@H](O[C@@H]5[C@@H](C)O[C@@]6(C[C@H]5OC)OCO[C@@H]5C[C@H](O[C@@H](C)[C@@]7(O)CC[C@H]8[C@@H]9CC=C%10C[C@@H](OC=O)CC[C@]%10(C)[C@H]9CC[C@@]87C)O[C@H](C)[C@H]5O6)O[C@@H]4C)O[C@@H]3C)O[C@@H]2C)[C@@H]1O`, the CC50 in data set [1] came to 146000 nM. The IC50 – broadly, the midpoint of a concentration-inhibition curve – in data set [2] came out at 860 nM; in the data set on T-cell it was 420 nM. Besides, the selectivity ratio stood at 347 in data set [3] and 170 in data set [4].

Turning to `CO[C@H]1[C@@H](O)[C@@H](C)O[C@@H](O[C@H]2[C@@H](OC)C[C@H](O[C@H]3[C@@H](OC)C[C@H](O[C@H]4[C@@H](O)C[C@H](O[C@@H]5[C@@H](C)O[C@@]6(C[C@H]5OC)OCO[C@@H]5C[C@H](O[C@@H](C)[C@@]7(O)CC[C@H]8[C@@H]9CC=C%10C[C@@H](O)CC[C@]%10(C)[C@H]9CC[C@@]87C)O[C@H](C)[C@H]5O6)O[C@@H]4C)O[C@@H]3C)O[C@@H]2C)[C@@H]1O`, the CC50 in data set [1] is above 200000 nM. Moreover, the IC50 in data set [2] is 750 nM; with T-cell it was 470 nM. Further, the selectivity ratio in data set [3] was above 426; in data set [4], above 267.

Take `CO[C@H]1C[C@H](O[C@H]2[C@@H](OC)C[C@H](O[C@H]3[C@H](O)C[C@H](O[C@H]4[C@@H](O)C[C@H](O[C@@H]5[C@@H](C)O[C@@]6(C[C@H]5OC)OCO[C@@H]5C[C@H](O[C@@H](C)[C@@]7(O)CC[C@H]8[C@@H]9CC=C%10C[C@@H](O)CC[C@]%10(C)[C@H]9CC[C@@]87C)O[C@H](C)[C@H]5O6)O[C@@H]4C)O[C@@H]3C)O[C@@H]2C)O[C@H](C)[C@H]1OC(C)=O`: in data set [1], the CC50 is above 200000 nM. Also, the IC50 in data set [2] came out at 1740 nM; with T-cell, 1470 nM. Besides, the selectivity ratio in data set [3] is above 136; in data set [4], above 145.
